According to article PMC6925493, “Casticin inhibits nasopharyngeal carcinoma growth by targeting phosphoinositide 3-kinase” (Cancer Cell International, 2019):

What was measured:
HONE1 and CNE1 = assay: Viability assay, response to BYL719; type: cell-based; conditions: 1 µM BYL719, 72 h
Procedure: (§1) The effects of casticin on the growth of the 12 cell lines were determined using the Cell Counting Kit-8 (CCK-8) assay (Dojindo, Japan). Briefly, cells were plated in 96-well plates at 4 × 10^3 cells/well in 100 μL and were treated with a gradient of casticin concentrations (0, 1, 2, 4, 8 µM). After incubation for 24, 48, or 72 h, 10 μL of the CCK-8 reagent was added into each well, and the plate was incubated for an additional 1 or 2 h. Next, a microplate reader (Bio-Rad, model 550) was used to detect absorbance at 490 nm in each well. We repeated the experiments three times. Cell viability was calculated using the following formula: […].
To identify BYL719-insensitive NPC cell lines, the response of 12 NPC cell lines to BYL719 was screened by viability assay (Fig. 5a). […] Only two NPC cell lines, HONE1 and CNE1, were sensitive to 1 µM BYL719 after 72 h (Fig. 5a). Both sensitive cell lines increased S-phase arrest and apoptosis rates (as measured by AV staining) compared with the those in the BYL719-insensitive cell lines (Fig. 5b, c). We studied PI3K signalling in three resistant (S18, C666-1 and HONE-EBV+) (Fig. 5d) and two sensitive cell lines (HONE1 and CNE1) after treatment with a gradient of BYL719 concentrations (Fig. 5e). […]

[1] = tested on: PI3K/AKT/mTOR signalling pathway; assay: Western blotting, PI3K/AKT/mTOR signalling in S18 and C666-1; type: cell-based
Source text: (§2) We used standard approaches and methods for Western blotting (WB) analyses. In brief, nasopharyngeal carcinoma cells were lysed on ice in Pierce RIPA buffer (Thermo Scientific) containing a Halt protease inhibitor cocktail (Sigma-Aldrich) and phosphatase inhibitors (Keygen Biotech). We measured protein concentration using a Beyotime protein assay protocol following the manufacturer’s instructions. Proteins were separated by using sodium dodecyl sulfate polyacrylamide gel electrophoresis and were then transferred to polyvinylidene difluoride membranes (0.45 µm; Millipore). […] The total S6, AKT, and mTOR antibodies were used on the same blots as the respective phosphorylated proteins after stripping (stripping buffer, CWBIO, China). All primary antibodies were diluted in Tris-buffered saline containing Tween 20 and 5% bovine serum albumin (BSA), and a peroxidase conjugate (Bioworld) was used as the secondary antibody. Anti-β-actin (20536-I, Proteintech) was used as a loading control. Immuno-reactive bands were visualized using an enhanced chemo-luminescence kit (Thermo Fisher Scientific), and images were captured using a ChemiDoc™ XRS molecular imager (Bio-Rad). Densitometry of band intensity was performed using ImageJ software.

[2] = tested on: phosphorylation of S6, AKT and mTOR; assay: Western blotting, PI3K signalling after BYL719 in sensitive and resistant cell lines; type: cell-based; conditions: sensitive cells (HONE1, CNE1) compared to resistant cells (S18, C666-1, HONE-EBV+)
Source text: as §2, with “All primary antibodies were diluted in Tris-buffered saline containing Tween 20 and 5% bovine serum albumin (BSA), and a peroxidase conjugate (Bioworld) was used as the secondary antibody. Anti-β-actin (20536-I, Proteintech) was used as a loading control.” left out, “Densitometry of band intensity was performed using ImageJ software.” left out
To identify BYL719-insensitive NPC cell lines, the response of 12 NPC cell lines to BYL719 was screened by viability assay (Fig. 5a). […] Both sensitive cell lines increased S-phase arrest and apoptosis rates (as measured by AV staining) compared with the those in the BYL719-insensitive cell lines (Fig. 5b, c). […]

p110α = tested on: p110α; design: method as in PMID 23903756; conditions: 1 μM; cited from earlier work
NPC cell lines = assay: CCK-8 cell viability assay, NPC cell lines; type: cell-based
Procedure: as §1

[3] = tested on: normal nasopharyngeal mucosal epithelial cell line NP69; assay: CCK-8 cell viability assay, NP69; type: cell-based; conditions: NP69 cells
Procedure: as §1

S18 and C666-1 cells = assay: Wound-healing assay; type: cell-based; conditions: vs cells not treated
Procedure: We seeded S18 and C666-1 cells in 6-well plates at 80% to 90% confluence. After a 24-h incubation period, cells were wounded by using a 0.2-mL pipette tip to scratch the subconfluent cell monolayer. Then, we removed the detached cells by washing with PBS just before casticin 16 µM was added to each well of the plate. Cells were maintained in serum-free medium and allowed to migrate for 24 h. An inverted microscope was used to capture cell migration images after 24 h. The speed of migration was determined by dividing the length of the gap and the wound areas in the resultant images.

S18 cells [4] = assay: Transwell migration assay; type: cell-based; conditions: concentration-dependent
S18 cells [5] = assay: Colony formation assay; type: cell-based
Procedure: S18 and C666-1 cells were incubated in 6-well plates with either 0, 1, 2, and 4 µM casticin for 12 h with 1 µM casticin for 0, 6, 12, and 24 h. There after, 500 cells were seeded in each well of a 6-well plate and cultured without casticin for 8–10 days. Subsequently, the cells were fixed with methanol and stained with haematoxylin. After washing and drying, colonies with more than 50 cells were counted under a microscope (Leica, Wetzlar, Germany).

S18 cells [6] = assay: S18 xenograft mouse model; type: in vivo, nude mice
Procedure: (§3) Generation and characterization of the xenograft mouse model were conducted in accordance with the guidelines of the Ministry of Science and Technology of China and were approved by the Animal Ethics Committee of Southern Medical University. All efforts were made to minimize animal suffering during the experiments. Five-week-old nude mice were obtained from the Guangdong Experimental Animal Ccenter. To assess the tumour growth, 5 × 10^6 S18 cells and 1 × 10^7 C666-1 cells were injected subcutaneously into the left or right side of the back of each mouse (three mice per group). When tumours reached approximately 100 mm^3, the mice were randomized to the control and casticin treatment groups. Casticin was diluted in 10% DMSO in normal saline (NS) and injected intraperitoneally at 40 mg/kg daily, while the control group received only NS vehicle. Tumour sizes were measured with a caliper and recorded every 3 days. Tumour volume was calculated as follows: tumour volume = (length × width^2) × 0.5. Body weight was recorded every 2–3 days during the treatment, and the tumour weight was measured at the end of the experiment.

C666-1 cells [7] = assay: C666-1 xenograft mouse model; type: in vivo, nude mice; conditions: 40 mg/kg daily i.p.
Procedure: as §3

S18 cells [8] = assay: Cell cycle analysis by flow cytometry, S18; type: cell-based; conditions: 8 µM casticin for 24 h
Procedure: (§4) S18 and C666-1 cells were treated with 0, 2, 4, and 8 µM casticin for 24 h. The cells were then collected, washed with phosphate-buffered saline (PBS), and fixed with 75% ethanol overnight. Subsequently, the cells were centrifuged (1500 rpm, 5 min) and incubated with 10 mg/mL RNase and 1 mg/mL propidium iodide (PI) at 37 °C for 30 min in the dark. Finally, we analysed cell cycle distribution by using flow cytometry (FACSCalibur; BD Biosciences, Bedford, MA, USA).

C666-1 cells [9] = assay: Cell cycle analysis by flow cytometry, C666-1; type: cell-based; conditions: 8 µM casticin for 24 h
Procedure: as §4

S18 cells [10] = assay: Annexin V/PI staining assay; type: cell-based; conditions: 48 h
Procedure: For the apoptosis test, S18 and C666-1 cells were treated with casticin at concentrations of 0, 1, 2, and 4 µM and of 0, 2, 4, and 8 µM for 48 h. Next, cells were collected and washed once with PBS. After centrifugation (1500 rpm, 5 min), cells were resuspended in 1× annexin V (AV) binding buffer and incubated with 5 µL of AV and PI at 37 °C for 30 min. Cell apoptosis was evaluated by using flow cytometry (FACSCalibur).

[11] = tested on: S18, CNE2, C666-1 tumour spheres; assay: 3D tumour sphere formation assay; type: cell-based; conditions: 20 µM casticin for 72 h; vs untreated spheres
Procedure: S18, CNE2, and C666-1 cells (2 × 10^4 each) were cellected, counted and seeded into a cell culture flask with a novel 3D tumour sphere culture system. The 3D tumour sphere culture system with NPC cells was cultured at 37 °C in a humid atmosphere with 5% CO2, the diameters of tumour spheroids were measured when the tumour sphere diameter was ≥ […] [15] and then incubated with 20 µM casticin for 72 h, the original medium was discarded, the cells were cultured for approximately 1 week, and the tumour spheres that were ≥ 100 µm in diameter were counted under a bright field microscope.

panel of 468 kinases = assay: KINOMEscan selectivity profiling; type: binding, human; conditions: 10 μM
Procedure: (§5) Selectivity profiling of casticin against a selected panel of 468 kinases distributed throughout the kinome was performed by DiscoverRx (http://www.discoverx.com/home) using the KINOMEscan screening platform at a test concentration of 10 μM. Since KINOMEscan is a binding assay and may not reflect the inhibitory activity of a compound, the binding constant (Kd) of casticin was calculated from a standard dose–response curve using the Hill equation: Response = Background + (Signal − Background)/[1 + (Kd^Hill Slope/Dose^Hill Slope)]. We then tested casticin in the SelectScreen assay (Invitrogen, USA) to calculate the IC50 of casticin that directly targeted the active site of ATP in PI3K kinase.

[12] = tested on: PI3K family, including wild-type and mutant kinases; assay: KINOMEscan binding to PI3K family; design: species or system human; conditions: 10 μM
Procedure: as §5

[13] = target: T1, PIK3CA ( p110 alpha/p85 alpha ) (Homo sapiens, UniProt P42336); assay: SelectScreen biochemical kinase activity assay
T1 construct: purchased Invitrogen (SelectScreen service)
T1 sequence (P42336 whole entry): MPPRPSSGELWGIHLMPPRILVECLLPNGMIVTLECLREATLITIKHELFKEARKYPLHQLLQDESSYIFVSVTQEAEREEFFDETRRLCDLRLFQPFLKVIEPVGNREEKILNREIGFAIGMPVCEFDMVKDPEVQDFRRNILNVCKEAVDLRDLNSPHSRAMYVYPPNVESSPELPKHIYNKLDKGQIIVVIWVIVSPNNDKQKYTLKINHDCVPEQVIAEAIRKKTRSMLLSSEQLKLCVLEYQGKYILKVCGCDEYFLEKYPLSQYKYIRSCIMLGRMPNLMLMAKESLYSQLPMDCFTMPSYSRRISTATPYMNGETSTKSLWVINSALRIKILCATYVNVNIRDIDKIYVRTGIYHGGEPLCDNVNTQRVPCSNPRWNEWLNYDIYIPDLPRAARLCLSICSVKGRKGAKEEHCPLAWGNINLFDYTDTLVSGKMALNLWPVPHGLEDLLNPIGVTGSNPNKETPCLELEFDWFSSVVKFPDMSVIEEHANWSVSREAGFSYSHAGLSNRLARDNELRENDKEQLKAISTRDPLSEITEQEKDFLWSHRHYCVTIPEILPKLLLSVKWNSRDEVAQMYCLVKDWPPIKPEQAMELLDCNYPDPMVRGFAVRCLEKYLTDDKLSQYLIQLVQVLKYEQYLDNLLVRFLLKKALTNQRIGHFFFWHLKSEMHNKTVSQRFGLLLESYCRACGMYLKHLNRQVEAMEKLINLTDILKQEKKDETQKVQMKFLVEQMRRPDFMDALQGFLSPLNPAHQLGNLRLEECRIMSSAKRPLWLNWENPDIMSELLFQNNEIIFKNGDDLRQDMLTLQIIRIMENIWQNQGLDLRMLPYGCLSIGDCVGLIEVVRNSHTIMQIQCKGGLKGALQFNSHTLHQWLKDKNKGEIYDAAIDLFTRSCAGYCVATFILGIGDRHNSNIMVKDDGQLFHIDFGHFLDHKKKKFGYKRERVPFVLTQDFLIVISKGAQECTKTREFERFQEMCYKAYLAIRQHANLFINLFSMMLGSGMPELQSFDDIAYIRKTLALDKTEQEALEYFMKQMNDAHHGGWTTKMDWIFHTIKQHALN
T1 sequence (P27986 whole entry partner): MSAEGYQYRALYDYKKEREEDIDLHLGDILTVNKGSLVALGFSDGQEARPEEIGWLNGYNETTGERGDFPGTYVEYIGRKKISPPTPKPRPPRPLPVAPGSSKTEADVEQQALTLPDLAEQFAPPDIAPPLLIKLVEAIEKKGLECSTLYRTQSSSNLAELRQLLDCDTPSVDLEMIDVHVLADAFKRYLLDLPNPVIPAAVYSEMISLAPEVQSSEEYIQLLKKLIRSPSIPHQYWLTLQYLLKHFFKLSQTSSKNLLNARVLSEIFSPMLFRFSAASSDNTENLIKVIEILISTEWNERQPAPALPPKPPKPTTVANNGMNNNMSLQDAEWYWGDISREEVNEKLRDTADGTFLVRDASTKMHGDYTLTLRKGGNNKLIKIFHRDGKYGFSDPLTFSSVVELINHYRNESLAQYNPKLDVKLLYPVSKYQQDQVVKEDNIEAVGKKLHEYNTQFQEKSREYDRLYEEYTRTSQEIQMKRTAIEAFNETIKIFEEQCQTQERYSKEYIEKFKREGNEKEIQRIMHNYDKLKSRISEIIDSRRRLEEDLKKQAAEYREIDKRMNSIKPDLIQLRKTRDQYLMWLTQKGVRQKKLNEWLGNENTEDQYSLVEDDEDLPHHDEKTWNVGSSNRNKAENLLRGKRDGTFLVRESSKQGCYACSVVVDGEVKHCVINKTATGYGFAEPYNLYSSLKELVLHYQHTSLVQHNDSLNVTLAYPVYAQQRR
Procedure: as §5

[14] = target: T2, PIK3CA E542K/PIK3R1 (p110 alpha/p85 alpha) (Homo sapiens, UniProt P42336, E542K); assay: SelectScreen biochemical kinase activity assay
T2 construct: purchased Invitrogen (SelectScreen service)
T2 sequence (P42336 whole entry E542K): as the sequence (P42336 whole entry) above, with E542K counted along it
T2 sequence (P27986 whole entry partner): as the sequence (P27986 whole entry partner) above
Procedure: as §5

[15] = target: T3, PIK3CA E545K/PIK3R1 (p110 alpha E545K/p85 alpha) (Homo sapiens, UniProt P42336, E545K); assay: SelectScreen biochemical kinase activity assay
T3 construct: purchased Invitrogen (SelectScreen service)
T3 sequence (P42336 whole entry E545K): as the sequence (P42336 whole entry) above, with E545K counted along it
T3 sequence (P27986 whole entry partner): as the sequence (P27986 whole entry partner) above
Procedure: as §5

[16] = target: T4, PIK3CA/PIK3R3 (p110a/p55 gamma) (Homo sapiens, UniProt P42336); assay: SelectScreen biochemical kinase activity assay
T4 construct: purchased Invitrogen (SelectScreen service)
T4 sequence (P42336 whole entry): as the sequence (P42336 whole entry) above
Procedure: as §5

BCL-2, BAX, p21 = assay: Western blotting, cell cycle and apoptosis related proteins; type: cell-based
Source text: as §2

Nanog, sox2, and Oct4 = assay: Western blotting, stem cell markers; type: cell-based; conditions: C666-1; 0, 4, 8, 16 µM; 24 h; dose-dependent
Source text: as §2

[17] = 40 mg/kg daily i.p., vs NS group
[18] = read-out: Inhibited kinase activity(%) at 1μM of Casticin

In the case of Cc1nc(NC(=O)N2CCC[C@H]2C(N)=O)sc1-c1ccnc(C(C)(C)C(F)(F)F)c1 [BYL719], the “sensitivity class by viability (IC50 cut-off 1 μM)” value (HONE1 and CNE1) is reported as “sensitive”, the “phosphorylation of ATK (Ser473 and Thr308) or mTORC1” value ([1]; BYL719 1 µM alone, 12 h) is reported as “did not reduce” and the “phosphorylation of S6, AKT and mTOR” value [2] is reported as “significantly reduced”. For the same compound, the “block of p110 subunits” value (p110α) was “blocked p110α without affecting the other p110 subunits”.

For COc1ccc(-c2oc3cc(OC)c(OC)c(O)c3c(=O)c2OC)cc1O [casticin, 3′,5-dihydroxy-3,4′,6,7-tetramethoxyflavone], the “IC50 on viability compared with BYL719” value (NPC cell lines; 12 NPC cell lines, 24 h) was “lower than that of BYL719”, the cell viability (NPC cell lines; eleven NPC cell lines, gradient of concentrations, 24, 48, 72 h, concentration-dependent) was “decreased” and the “effect on cell growth compared to BYL719” value [3] was “less effective”. The cell viability ([3]; gradient of concentrations, 24, 48, 72 h) was “resistant”, the gap-closing speeds (S18 and C666-1 cells) was “significantly decreased” and the “number of migrating cells” value (S18 cells [4]) was “significantly reduced”. The clonogenic ability (S18 cells [5]; 1 µM casticin, vs control group) was “diminished as early as 6 h”, the clonogenic activity (S18 cells [5]; S18 cells, 0, 1, 2, 4 µM for 12 h) was “significant reduction” and the “damage to the liver or kidney (haematoxylin and eosin histopathology)” value (S18 cells [6]; 40 mg/kg daily i.p.) was “without any obvious subsequent damage to the liver or kidney”. The tumour size (S18 cells [6]; 40 mg/kg daily i.p. for 12 days, 18 days after implantation) was “smaller than those in the control group”, the “tumour growth rate (tumour volume)” value (S18 cells [6]; [17]) was “lower than NS group” and the tumour weight (S18 cells [6]; [17]) was “lighter than NS group”. The “ratios of liver and kidney weight to body weight” value (S18 cells [6]; S18 model, 40 mg/kg daily i.p.) was “not statistically significant between groups”, the “tumour growth and liver/kidney histology in C666-1 in vivo model” value (C666-1 cells [7]) was “findings similar to those with the S18 model” and the “percentage of cells in the G2/M phase” value (S18 cells [8]) was 62.90 ± 1.97%. The “percentage of cells in the G2/M phase” value (C666-1 cells [9]) was 62.54 ± 4.91%, the “early and late apoptosis” value (S18 cells [10]; 1 μM) was “significantly increased” and the apoptotic frequency (S18 cells [10]; 4 μM) was “approximately 75%”. The tumour sphere growth [11] was “significant reduction in tumour growth”, the “S score (1)” value (panel of 468 kinases) was 0.01 and the “binding to other kinases” value (panel of 468 kinases; KINOMEscan) was “did not demonstrate strong binding”. The percent control number [12] was “less than 1”, the IC50 ([13]; PI3K (p110α/p85α)) was 616 nM and the inhibition at 1 µM [13, 18] was 56%. For the same compound, the IC50 [14] was 306 nM, the inhibition at 1 µM [14, 18] was 57% and the IC50 [15] was 544 nM. The inhibition at 1 µM [15, 18] was 54%, the IC50 [16] was 574 nM and the inhibition at 1 µM [16, 18] was 46%. The “phosphorylation of AKT (T308, S473) and mTOR (Ser2481, Ser2448)” value ([1]; 24 h, increasing casticin concentrations, dose-dependent) was “significant reduction”, the p21 expression (BCL-2, BAX, p21; S18 and C666-1, 24 h) was “increased” and the BCL-2/BAX ratio (BCL-2, BAX, p21; casticin-treated S18 and C666-1 cells) was “significantly decreased in a dose-dependent manner”. For the same compound, the “expression of tumour stemness markers Nanog, sox2, Oct4” value (Nanog, sox2, and Oct4) was “reduced expression”.
